From publication PMC7127030 (Bioorganic & Medicinal Chemistry Letters, 2009)

How the values were obtained:
[1] = target: T1, SCV Hel duplex DNA-unwinding activity (Severe acute respiratory syndrome coronavirus, UniProt P0C6X7); format: biochemical, SARS coronavirus
[2] = target: T1, SCV Hel duplex DNA-unwinding activity; conditions: read-out: IC50 SCV Hel duplex DNA-unwinding; cited from earlier work

| Structure (SMILES) | inhibition of helicase duplex DNA-unwinding activity [1] | IC50 [2] [nM] |
| --- | --- | --- |
| O=C(O)/C(O)=C/C(=O)c1cccc(OCc2ccccc2)c1 [Compound 3] | neither 2 nor 3 showed inhibition |  |
| COc1cc(C23OC4(O)CC(O)(CC(O)(C4)O2)O3)ccc1O [vanillinbananin] |  | 2700 |
| O=C(O)/C(O)=C/C(=O)c1ccc(OCc2ccc(Cl)cc2)cc1 [Compound 2] | neither 2 nor 3 showed inhibition |  |
